Measurements reported in US12692233B2, “Anthelmintic compounds comprising a pyridine structure” (Intervet Inc., priority 2020, dated 2026).

Experiments:
[1] = target: T1, human Maxi K channel (BK channel) (Homo sapiens, UniProt Q12791); assay: Agonistic activity at the human Maxi K channel (BK channel), FLIPR membrane potential in CHO K1 cells; type: cell-based; details: CHO K1 cells stably transfected with KCNMA1 and beta1 (KCNMB1) subunits, membrane potential dye
T1 construct: expressed in transfected cells; host or cells: CHO K1
T1 sequence (Q12791 1-1178 isoform Q12791-5): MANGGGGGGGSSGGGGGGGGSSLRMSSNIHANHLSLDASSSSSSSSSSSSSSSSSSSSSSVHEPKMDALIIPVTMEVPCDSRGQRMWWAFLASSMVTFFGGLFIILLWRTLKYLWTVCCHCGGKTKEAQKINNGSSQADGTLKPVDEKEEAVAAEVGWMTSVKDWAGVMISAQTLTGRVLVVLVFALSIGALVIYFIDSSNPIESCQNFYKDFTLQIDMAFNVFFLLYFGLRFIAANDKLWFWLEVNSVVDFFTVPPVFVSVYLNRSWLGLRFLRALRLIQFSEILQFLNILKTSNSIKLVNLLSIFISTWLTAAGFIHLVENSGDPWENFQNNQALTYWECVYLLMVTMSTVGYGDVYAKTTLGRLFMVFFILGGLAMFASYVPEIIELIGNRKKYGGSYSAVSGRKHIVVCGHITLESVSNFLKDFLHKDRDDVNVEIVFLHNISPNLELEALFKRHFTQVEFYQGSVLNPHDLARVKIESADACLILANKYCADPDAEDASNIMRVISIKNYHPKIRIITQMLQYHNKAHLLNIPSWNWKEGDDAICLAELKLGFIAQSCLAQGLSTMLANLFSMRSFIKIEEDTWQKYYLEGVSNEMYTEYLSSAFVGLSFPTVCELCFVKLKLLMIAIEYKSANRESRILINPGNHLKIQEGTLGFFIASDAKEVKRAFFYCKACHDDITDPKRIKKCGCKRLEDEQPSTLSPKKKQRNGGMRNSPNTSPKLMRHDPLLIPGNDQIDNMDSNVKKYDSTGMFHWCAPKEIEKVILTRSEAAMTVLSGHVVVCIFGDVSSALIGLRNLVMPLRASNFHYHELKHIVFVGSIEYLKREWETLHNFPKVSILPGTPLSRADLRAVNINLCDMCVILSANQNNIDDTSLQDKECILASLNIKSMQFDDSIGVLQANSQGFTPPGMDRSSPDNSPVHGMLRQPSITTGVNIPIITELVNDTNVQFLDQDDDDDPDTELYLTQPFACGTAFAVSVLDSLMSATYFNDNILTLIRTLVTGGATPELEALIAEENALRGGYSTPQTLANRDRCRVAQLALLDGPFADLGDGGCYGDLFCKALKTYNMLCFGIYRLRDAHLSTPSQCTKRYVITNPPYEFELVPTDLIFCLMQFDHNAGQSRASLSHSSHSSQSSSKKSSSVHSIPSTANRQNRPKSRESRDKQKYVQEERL
T1 sequence (Q16558 whole entry partner): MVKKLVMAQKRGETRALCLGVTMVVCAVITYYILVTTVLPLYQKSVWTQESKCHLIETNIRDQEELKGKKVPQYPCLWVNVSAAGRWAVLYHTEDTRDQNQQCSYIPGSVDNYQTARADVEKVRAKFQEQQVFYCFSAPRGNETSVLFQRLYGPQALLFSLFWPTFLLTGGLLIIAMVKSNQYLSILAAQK
Source text: A CHO K1 cell line was stably transfected with the KCNMA1 (KCa1.1, U11058) and beta1 (KCNMB1) subunits of the human Maxi K channel (Ponte et al, Molecular Pharmacology 2012, 81(4), 567-577).
The complete measurement takes 150 s.

C. elegans Slo-1a = C. elegans Slo-1a (Caenorhabditis elegans, UniProt Q95V25); assay: Agonistic activity at C. elegans Slo-1a, FLIPR membrane potential in CHO K1 cells; details: EC50 agonistic activity at C. elegans Slo-1a, CHO K1 cells stably transfected with slo-1a, membrane potential dye
Chain of C. elegans Slo-1a (Q95V25 whole entry): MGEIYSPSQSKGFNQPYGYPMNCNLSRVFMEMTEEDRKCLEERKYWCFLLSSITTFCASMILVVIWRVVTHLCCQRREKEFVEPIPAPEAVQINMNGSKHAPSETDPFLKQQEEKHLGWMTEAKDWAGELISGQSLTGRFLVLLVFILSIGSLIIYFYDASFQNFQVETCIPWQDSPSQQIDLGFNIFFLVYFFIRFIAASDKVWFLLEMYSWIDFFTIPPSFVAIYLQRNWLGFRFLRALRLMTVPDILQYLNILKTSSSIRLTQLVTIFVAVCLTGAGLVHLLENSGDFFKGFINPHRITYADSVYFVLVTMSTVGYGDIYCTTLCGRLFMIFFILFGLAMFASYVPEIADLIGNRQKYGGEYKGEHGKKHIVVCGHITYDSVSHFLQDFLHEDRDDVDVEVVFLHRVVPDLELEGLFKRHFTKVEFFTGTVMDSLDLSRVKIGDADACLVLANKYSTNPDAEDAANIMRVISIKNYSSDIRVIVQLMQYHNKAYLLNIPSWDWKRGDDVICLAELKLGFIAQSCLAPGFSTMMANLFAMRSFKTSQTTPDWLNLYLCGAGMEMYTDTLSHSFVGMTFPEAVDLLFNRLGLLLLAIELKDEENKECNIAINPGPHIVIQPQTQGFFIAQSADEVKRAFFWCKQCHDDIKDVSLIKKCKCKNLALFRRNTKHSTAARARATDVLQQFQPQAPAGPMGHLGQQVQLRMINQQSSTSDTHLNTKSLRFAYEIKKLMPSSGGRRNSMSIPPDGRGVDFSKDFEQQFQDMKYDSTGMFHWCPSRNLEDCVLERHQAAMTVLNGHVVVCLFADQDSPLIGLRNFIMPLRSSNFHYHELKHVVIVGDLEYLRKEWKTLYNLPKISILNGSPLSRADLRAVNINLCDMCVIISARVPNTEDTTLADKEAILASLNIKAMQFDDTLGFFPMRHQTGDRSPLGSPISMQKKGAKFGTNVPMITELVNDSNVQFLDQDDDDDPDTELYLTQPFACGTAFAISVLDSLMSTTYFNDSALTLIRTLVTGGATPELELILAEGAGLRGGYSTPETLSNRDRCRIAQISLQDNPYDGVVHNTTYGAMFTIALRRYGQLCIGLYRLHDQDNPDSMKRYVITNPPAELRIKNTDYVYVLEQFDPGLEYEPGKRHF
Protocol: A CHO K1 cell line stably transfected with the Caenorhabditis elegans slo-1a (accession no Y51A2D.19a) was established. Cells were seeded in microtiter plates (black 384-well MTP, clear bottom) in a concentration of 10,000 cells/well in 25 μl medium and cultured for 20 to 24 hours at 37° C. and 5% CO2. After incubation, 25 μl of FMP-dye Blue-Tyrode's was added to each well and incubated at room temperature for 30 min. Ten minutes after addition of 12.5 μl compound solution, the plates are transferred to the FLIPR for measurement.
For the membrane potential measurements, the plates were placed in the FLIPR Penta (Molecular Devices). The baseline measurement of the fluorescence was stared for 20 sec (Exc. 510-545 nm, Emm. 565-625 nm). Potential channel opening measurement was started by addition of 25 μl of KCl-Tyrode (final assay concentration of the KCl-Tyrode: 70 mM KCl, 2 mM CaCl2, 1 mM MgCl2, 0.8 mM NaH2PO4, 5 mM Glucose, 28 mM Hepes, pH 7.4, including the voltage sensitive dye). The complete measurement takes 150 s.
EC50 values were determined in triplicate utilizing compound dilution series. The data were determined at least in two independent tests. The data were proceeded by using the ActivityBase XE Runner software (IDBS) for curve fitting and calculation of the half-maximal effective concentration.

Ascaridia galli = assay: In vitro assay Ascaridia galli larval stage 3; type: cell-based; details: larval stage 3, 20 larvae per well, microscopic examination, read-out: MEC (minimum effective concentration) against Ascaridia galli L3
Source text: (§1) […] galli (intestinal roundworm of chicken), larval stage 3 (“L3”); and Oesophagostumum dentatum (nodular worm of swine), larval stages 3 and 4 (respectively “L3” and “L4”) where suspended in a nutrient medium and distributed to 96 well plates with 20 larvae per well. The wells were spiked DMSO solutions of the compounds with declining concentration.

Oesophagostumum dentatum = assay: In vitro assay Oesophagostumum dentatum larval stage 3; type: cell-based; details: larval stage 3, 20 larvae per well, microscopic examination; read-out: MEC (minimum effective concentration) against Oesophagostumum dentatum L3
Source text: as §1

SMILES	EC50 [1] [µM]	EC50 (C. elegans Slo-1a) [µM]	minimal effective concentration (Ascaridia galli) [µM]	minimal effective concentration (Oesophagostumum dentatum) [µM]
O=C(N[C@H]1CCc2ccccc21)c1cnc(Sc2cc(Cl)cc(Cl)c2)cc1N1CCOCC1 [Compound 11]	> 30	< 1	–	–
O=C(Nc1cccc2ccccc12)c1cnc(Sc2cc(Cl)cc(Cl)c2)cc1N1CCOCC1 [Compound 10]	> 30	–	≤ 50	–
CCOc1cc(Oc2cc(Cl)cc(Cl)c2)ncc1C(=O)N[C@H]1CCCc2ccccc21 [Compound 98]	> 30	–	–	–
CCSc1cc(Sc2cc(Cl)cc(Cl)c2)ncc1C(=O)N[C@H]1CCCc2ccccc21 [Compound 75]	> 30	–	–	–
O=C(N[C@H]1CCCc2ccccc21)c1cnc(Oc2cc(Cl)cc(Cl)c2)cc1N1CCOCC1 [Compound 8]	> 30	< 1	–	–
CN(C)c1cc(Oc2cc(Cl)cc(Cl)c2)ncc1C(=O)N[C@H]1CCc2ccccc21 [Compound 31]	> 30	< 1	–	–
O=C(N[C@H]1CCOc2ccccc21)c1cnc(Oc2cc(Cl)cc(Cl)c2)cc1N1CCOCC1 [Compound 5]	> 30	< 1	–	–
CCOc1cc(Sc2cc(Cl)cc(Cl)c2)ncc1C(=O)N[C@H]1CCCc2ccccc21 [Compound 99]	> 30	–	–	≤ 50
CN(C)c1cc(Sc2cc(Cl)cc(Cl)c2)ncc1C(=O)N[C@H]1CCOc2ccccc21 [Compound 13]	> 30	–	–	–
CSc1cc(Oc2cccc(Cl)c2Cl)ncc1C(=O)N[C@H]1CCc2ccccc21 [Compound 58]	> 30	< 10	≤ 50	–
CN(C)c1cc(Sc2cc(Cl)cc(Cl)c2)ncc1C(=O)N[C@H]1CCc2ccccc21 [Compound 15]	> 30	< 1	–	–
CN(C)c1cc(Sc2cccc(Cl)c2Cl)ncc1C(=O)Nc1cccc2ccccc12 [Compound 43]	> 30	–	–	–
CCOc1cc(Sc2cc(Cl)cc(Cl)c2)ncc1C(=O)N[C@H]1CCOc2ccccc21 [Compound 88]	> 30	< 10	–	–
CN(C)c1cc(Sc2cccc(Cl)c2Cl)ncc1C(=O)N[C@H]1CCc2ccccc21 [Compound 42]	> 30	< 1	–	–
CN(C)c1cc(Oc2cc(Cl)cc(Cl)c2)ncc1C(=O)N[C@H]1CCOc2ccccc21 [Compound 30]	> 30	< 1	–	–
CN(C)c1cc(Sc2cccc(Cl)c2Cl)ncc1C(=O)Nc1csc2ccccc12 [Compound 44]	> 30	–	–	–
CCOc1cc(Oc2cccc(Cl)c2Cl)ncc1C(=O)N[C@H]1CCc2ccccc21 [Compound 93]	> 30	–	–	–
O=C(N[C@H]1CCc2ccccc21)c1cnc(Oc2cccc(Cl)c2Cl)cc1N1CCOCC1 [Compound 7]	> 30	< 1	–	–
CN(C)c1cc(Oc2cc(Cl)cc(Cl)c2)ncc1C(=O)N[C@H]1CCCc2ccccc21 [Compound 28]	> 30	< 1	≤ 50	–
O=C(N[C@H]1CCOc2ccccc21)c1cnc(Sc2cccc(Cl)c2Cl)cc1N1CCOCC1 [Compound 22]	> 30	< 1	–	–
CCSc1cc(Sc2cccc(Cl)c2Cl)ncc1C(=O)N[C@H]1CCc2ccccc21 [Compound 64]	> 30	–	–	–
CCSc1cc(Oc2cc(Cl)cc(Cl)c2)ncc1C(=O)N[C@H]1CCOc2ccccc21 [Compound 80]	> 30	–	≤ 50	–
O=C(N[C@H]1CCOc2ccccc21)c1cnc(Oc2cccc(Cl)c2Cl)cc1N1CCOCC1 [Compound 12]	> 30	< 1	–	–
CCSc1cc(Sc2cccc(Cl)c2Cl)ncc1C(=O)N[C@H]1CCOc2ccccc21 [Compound 63]	> 30	–	–	–
CCOc1cc(Sc2cccc(Cl)c2Cl)ncc1C(=O)N[C@H]1CCOc2ccccc21 [Compound 71]	> 30	< 10	–	–
O=C(N[C@H]1CCOc2ccccc21)c1cnc(Nc2cc(Cl)cc(Cl)c2)cc1N1CCOCC1 [Compound 107]	10 to 30	< 10	≤ 50	–
O=C(N[C@H]1CCCc2ccccc21)c1cnc(Sc2cc(Cl)cc(Cl)c2)cc1N1CCOCC1 [Compound 9]	> 30	< 1	–	–
CN(C)c1cc(Oc2cc(Cl)cc(Cl)c2)ncc1C(=O)Nc1csc2ccccc12 [Compound 38]	> 30	–	–	–
CN(C)c1cc(Sc2cc(Cl)cc(Cl)c2)ncc1C(=O)Nc1csc2ccccc12 [Compound 33]	> 30	–	≤ 50	–
